Experiments:
Type in all cases: in vivo
[1] = test system: Triticum aestivum; experiment: Herbicidal activity, preemergence test; conditions: pre; sprayed onto soil, 800 g of active material per hectare; evaluated 3 weeks after treatment
Outline: (§1)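 Scored visually on a 0-9 scale against untreated sown soil 3 weeks after application. Seeds freshly sown in prepared loam received a soil spray of 800 g/ha active material, applied as a water-diluted acetone solution with 0.4% TRITON X-155 at 900 L/ha.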

[2] = test system: Papaver rhoeas; experiment: Herbicidal activity, preemergence test; conditions: pre; sprayed onto soil, 800 g of active material per hectare; evaluated 3 weeks after treatment
Outline: as §1

[3] = test system: Matricaria inodora; experiment: Herbicidal activity, preemergence test; conditions: pre; sprayed onto soil, 800 g of active material per hectare; evaluated 3 weeks after treatment
Outline: as §1

[4] = test system: Abutilon theophrasti; experiment: Herbicidal activity, preemergence test; conditions: pre; sprayed onto soil, 800 g of active material per hectare; evaluated 3 weeks after treatment
Outline: as §1

[5] = test system: Lamium purpureum; experiment: Herbicidal activity, preemergence test; conditions: pre; sprayed onto soil, 800 g of active material per hectare; evaluated 3 weeks after treatment
Outline: as §1

[6] = test system: Ambrosia artemisifolia; experiment: Herbicidal activity, preemergence test; conditions: pre; sprayed onto soil, 800 g of active material per hectare; evaluated 3 weeks after treatment
Outline: as §1

[7] = test system: Gossypium hirsutum; experiment: Herbicidal activity, preemergence test; conditions: pre; sprayed onto soil, 800 g of active material per hectare; evaluated 3 weeks after treatment
Outline: as §1

[8] = test system: Zea mays; experiment: Herbicidal activity, preemergence test; conditions: pre; sprayed onto soil, 800 g of active material per hectare; evaluated 3 weeks after treatment
Outline: as §1

[9] = test system: Ipomoea hederacea; experiment: Herbicidal activity, preemergence test; conditions: pre; sprayed onto soil, 800 g of active material per hectare; evaluated 3 weeks after treatment
Outline: as §1

[10] = test system: Setaria viridis; experiment: Herbicidal activity, preemergence test; conditions: pre; sprayed onto soil, 800 g of active material per hectare; evaluated 3 weeks after treatment
Outline: as §1

[11] = test system: Alopecurus myosuroides; experiment: Herbicidal activity, preemergence test; conditions: pre; sprayed onto soil, 800 g of active material per hectare; evaluated 3 weeks after treatment
Outline: as §1

[12] = test system: Chenopodium album; experiment: Herbicidal activity, preemergence test; conditions: pre; sprayed onto soil, 800 g of active material per hectare; evaluated 3 weeks after treatment
Outline: as §1

[13] = test system: Veronica persica; experiment: Herbicidal activity, preemergence test; conditions: pre; sprayed onto soil, 800 g of active material per hectare; evaluated 3 weeks after treatment
Outline: as §1

[14] = test system: Amaranthus retroflexus; experiment: Herbicidal activity, preemergence test; conditions: pre; sprayed onto soil, 800 g of active material per hectare; evaluated 3 weeks after treatment
Outline: as §1

[15] = test system: Galium aparine; experiment: Herbicidal activity, preemergence test; conditions: pre; sprayed onto soil, 800 g of active material per hectare; evaluated 3 weeks after treatment
Outline: as §1

[16] = test system: Glycine max; experiment: Herbicidal activity, preemergence test; conditions: pre; sprayed onto soil, 800 g of active material per hectare; evaluated 3 weeks after treatment
Outline: as §1

[17] = test system: Stellaria media; experiment: Herbicidal activity, preemergence test; conditions: pre; sprayed onto soil, 800 g of active material per hectare; evaluated 3 weeks after treatment
Outline: as §1

[18] = test system: Hordeum vulgare; experiment: Herbicidal activity, preemergence test; conditions: pre; sprayed onto soil, 800 g of active material per hectare; evaluated 3 weeks after treatment
Outline: as §1

[19] = test system: Triticum aestivum; experiment: Herbicidal activity, postemergence test; conditions: post; sprayed onto seedling plants, 800 g of active material per hectare; evaluated 2 weeks after treatment
Outline: (§2)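 First, test compound in acetone containing 0.4% Triton X-155 is diluted with water. Next, it is sprayed at 800 g/ha (900 L/ha) onto freshly seeded loam (pre) or onto seedlings (post). Finally, plants are scored 0-9 visually after 3 or 2 weeks, respectively.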

[20] = test system: Papaver rhoeas; experiment: Herbicidal activity, postemergence test; conditions: post; sprayed onto seedling plants, 800 g of active material per hectare; evaluated 2 weeks after treatment
Outline: as §2

[21] = test system: Matricaria inodora; experiment: Herbicidal activity, postemergence test; conditions: post; sprayed onto seedling plants, 800 g of active material per hectare; evaluated 2 weeks after treatment
Outline: as §2

[22] = test system: Abutilon theophrasti; experiment: Herbicidal activity, postemergence test; conditions: post; sprayed onto seedling plants, 800 g of active material per hectare; evaluated 2 weeks after treatment
Outline: as §2

[23] = test system: Lamium purpureum; experiment: Herbicidal activity, postemergence test; conditions: post; sprayed onto seedling plants, 800 g of active material per hectare; evaluated 2 weeks after treatment
Outline: as §2

[24] = test system: Ambrosia artemisifolia; experiment: Herbicidal activity, postemergence test; conditions: post; sprayed onto seedling plants, 800 g of active material per hectare; evaluated 2 weeks after treatment
Outline: as §2

[25] = test system: Gossypium hirsutum; experiment: Herbicidal activity, postemergence test; conditions: post; sprayed onto seedling plants, 800 g of active material per hectare; evaluated 2 weeks after treatment
Outline: as §2

[26] = test system: Zea mays; experiment: Herbicidal activity, postemergence test; conditions: post; sprayed onto seedling plants, 800 g of active material per hectare; evaluated 2 weeks after treatment
Outline: as §2

[27] = test system: Ipomoea hederacea; experiment: Herbicidal activity, postemergence test; conditions: post; sprayed onto seedling plants, 800 g of active material per hectare; evaluated 2 weeks after treatment
Outline: as §2

[28] = test system: Setaria viridis; experiment: Herbicidal activity, postemergence test; conditions: post; sprayed onto seedling plants, 800 g of active material per hectare; evaluated 2 weeks after treatment
Outline: as §2

[29] = test system: Alopecurus myosuroides; experiment: Herbicidal activity, postemergence test; conditions: post; sprayed onto seedling plants, 800 g of active material per hectare; evaluated 2 weeks after treatment
Outline: as §2

[30] = test system: Chenopodium album; experiment: Herbicidal activity, postemergence test; conditions: post; sprayed onto seedling plants, 800 g of active material per hectare; evaluated 2 weeks after treatment
Outline: as §2

[31] = test system: Veronica persica; experiment: Herbicidal activity, postemergence test; conditions: post; sprayed onto seedling plants, 800 g of active material per hectare; evaluated 2 weeks after treatment
Outline: as §2

[32] = test system: Amaranthus retroflexus; experiment: Herbicidal activity, postemergence test; conditions: post; sprayed onto seedling plants, 800 g of active material per hectare; evaluated 2 weeks after treatment
Outline: as §2

[33] = test system: Galium aparine; experiment: Herbicidal activity, postemergence test; conditions: post; sprayed onto seedling plants, 800 g of active material per hectare; evaluated 2 weeks after treatment
Outline: as §2

[34] = test system: Glycine max; experiment: Herbicidal activity, postemergence test; conditions: post; sprayed onto seedling plants, 800 g of active material per hectare; evaluated 2 weeks after treatment
Outline: as §2

[35] = test system: Stellaria media; experiment: Herbicidal activity, postemergence test; conditions: post; sprayed onto seedling plants, 800 g of active material per hectare; evaluated 2 weeks after treatment
Outline: as §2

[36] = test system: Hordeum vulgare; experiment: Herbicidal activity, postemergence test; conditions: post; sprayed onto seedling plants, 800 g of active material per hectare; evaluated 2 weeks after treatment
Outline: as §2

C[C@H](NC(=O)c1nnc(-c2cc(Cl)cc(Cl)c2)o1)c1ccccc1 [Example 28]
TRZAW control rating (0-9) [1]: 0 (no effect) | PAPRH control rating (0-9) [2]: 0 (no effect) | MATIN control rating (0-9) [3]: 0 (no effect) | ABUTH control rating (0-9) [4]: 0 (no effect) | LAMPU control rating (0-9) [5]: 0 (no effect) | AMBEL control rating (0-9) [6]: 0 (no effect) | GOSHI control rating (0-9) [7]: 0 (no effect) | ZEAMX control rating (0-9) [8]: 0 (no effect) | IPOHE control rating (0-9) [9]: 0 (no effect) | SETVI control rating (0-9) [10]: 0 (no effect) | ALOMY control rating (0-9) [11]: 0 (no effect) | CHEAL control rating (0-9) [12]: 0 (no effect) | VERPE control rating (0-9) [13]: 0 (no effect) | AMARE control rating (0-9) [14]: 0 (no effect) | GALAP control rating (0-9) [15]: 0 (no effect) | GLXMA control rating (0-9) [16]: 0 (no effect) | STEME control rating (0-9) [17]: 0 (no effect) | HORVW control rating (0-9) [18]: 0 (no effect) | TRZAW control rating (0-9) [19]: 0 (no effect) | PAPRH control rating (0-9) [20]: 0 (no effect) | MATIN control rating (0-9) [21]: 0 (no effect) | ABUTH control rating (0-9) [22]: 0 (no effect) | LAMPU control rating (0-9) [23]: 0 (no effect) | AMBEL control rating (0-9) [24]: 0 (no effect) | GOSHI control rating (0-9) [25]: 0 (no effect) | ZEAMX control rating (0-9) [26]: 0 (no effect) | IPOHE control rating (0-9) [27]: 0 (no effect) | SETVI control rating (0-9) [28]: 0 (no effect) | ALOMY control rating (0-9) [29]: 0 (no effect) | CHEAL control rating (0-9) [30]: 2 (slight effect) | VERPE control rating (0-9) [31]: 0 (no effect) | AMARE control rating (0-9) [32]: 0 (no effect) | GALAP control rating (0-9) [33]: 0 (no effect) | GLXMA control rating (0-9) [34]: 2 (slight effect) | STEME control rating (0-9) [35]: 0 (no effect) | HORVW control rating (0-9) [36]: 0 (no effect)

C[C@H](NC(=O)c1nnc(-c2ccc(F)cc2F)o1)c1ccccc1 [Example 32]
TRZAW control rating (0-9) [1]: 0 (no effect) | PAPRH control rating (0-9) [2]: 8 (approaching complete kill) | MATIN control rating (0-9) [3]: 9 (complete kill) | ABUTH control rating (0-9) [4]: 2 (slight effect) | LAMPU control rating (0-9) [5]: 8 (approaching complete kill) | AMBEL control rating (0-9) [6]: 1 (trace effect) | GOSHI control rating (0-9) [7]: 0 (no effect) | ZEAMX control rating (0-9) [8]: 0 (no effect) | IPOHE control rating (0-9) [9]: 0 (no effect) | SETVI control rating (0-9) [10]: 9 (complete kill) | ALOMY control rating (0-9) [11]: 3 (moderate effect) | CHEAL control rating (0-9) [12]: 8 (approaching complete kill) | VERPE control rating (0-9) [13]: 9 (complete kill) | AMARE control rating (0-9) [14]: 9 (complete kill) | GALAP control rating (0-9) [15]: 2 (slight effect) | GLXMA control rating (0-9) [16]: 0 (no effect) | STEME control rating (0-9) [17]: 9 (complete kill) | HORVW control rating (0-9) [18]: 0 (no effect) | TRZAW control rating (0-9) [19]: 3 (moderate effect) | PAPRH control rating (0-9) [20]: 9 (complete kill) | MATIN control rating (0-9) [21]: 9 (complete kill) | ABUTH control rating (0-9) [22]: 8 (approaching complete kill) | LAMPU control rating (0-9) [23]: 9 (complete kill) | AMBEL control rating (0-9) [24]: 8 (approaching complete kill) | GOSHI control rating (0-9) [25]: 9 (complete kill) | ZEAMX control rating (0-9) [26]: 3 (moderate effect) | IPOHE control rating (0-9) [27]: 9 (complete kill) | SETVI control rating (0-9) [28]: 9 (complete kill) | ALOMY control rating (0-9) [29]: 3 (moderate effect) | CHEAL control rating (0-9) [30]: 9 (complete kill) | VERPE control rating (0-9) [31]: 9 (complete kill) | AMARE control rating (0-9) [32]: 8 (approaching complete kill) | GALAP control rating (0-9) [33]: 6 (herbicidal effect) | GLXMA control rating (0-9) [34]: 5 (definite injury) | STEME control rating (0-9) [35]: 9 (complete kill) | HORVW control rating (0-9) [36]: 3 (moderate effect)
